{"source": "patent US20020188022A1", "about": "“Methods for modulation, stimulation, and inhibition of glutamate reuptake” (Annovis. Inc., priority 2000, published 2002)", "key": {"[1]": {"biological_target": "T1, Glial Glutamate Transporter (GLAST and GLT1)", "T1 construct": "Bmax; other: 20 nM [3H]-4MG, 4° C; KD", "assay": "Binding of [3H]-4MG to rat forebrain membrane homogenates in Na+-containing HEPES buffer", "settings": "for Displacement of 4MG binding: at or above 100 μM, FIG. 5", "procedure": "(§1) Forebrain tissue from female Sprague Dawley rats was homogenized in HEPES buffer containing Na^+, and membranes were washed twice in the same buffer. Binding experiments were also performed in this buffer. Initial studies determined appropriate parameters for time (15 minutes incubation at 4° C.) and drug concentration (20 nM [^3H]-4MG) to be used in subsequent experiments. Following incubation of [^3H]-4MG with or without other compounds, binding was terminated by rapid filtration through Whatman GF/B filter discs and washing 3 times with buffer using a Brandel cell harvester. Binding was determined by scintillation spectrometry. A full range of association, dissociation, saturation and inhibition studies was performed over varying incubation times (up to 60 min). Data were analysed using computer-assisted curve fitting. Values are expressed as mean of at least triplicate determinations and multiple experiments.\n(§2) A full range of association, dissociation, saturation and inhibition studies was performed over varying incubation times (up to 60 min). Data were analysed using computer-assisted curve fitting. Values cited are expressed as mean of at least triplicate determinations and multiple experiments."}, "[2]": {"system": "Glial Glutamate Transporter (GLAST and GLT1)", "assay": "Binding of [3H]-4MG to rat forebrain membrane homogenates in Na+-containing HEPES buffer", "settings": "FIG. 5", "procedure": "as §1, §2"}, "Analgesic effect test": {"assay": "Analgesic effect test", "assay_type": "in vivo", "settings": "compared with 1", "source_text": "(§3) The ester, carbonate, and amine bond in any prodrug forms of compounds identified by the disclosed method can be readily cleaved in vivo. Therefore, prodrug compositions can be hydrolyzed to the corresponding acid forms in plasma."}, "[3]": {"assay": "Hydrolysis of prodrug to the acid form", "assay_type": "in vitro ADME", "source_text": "as §3"}, "[4]": {"assay": "Bioavailability and half-life of prodrug", "assay_type": "in vivo", "settings": "compared with 1", "source_text": "as §3"}, "[5]": {"settings": "20 nM [3H]-4MG, 4° C., read-out: Displacement of 4MG binding to rat brain membrane homogenates, IC50"}}, "note": "Read-outs that look alike come from different tables or passages of the source."}
{"molecule": "C[C@H](C[C@H](N)C(=O)O)C(=O)O", "note": "[4MG, (2S,4R)-4-methylglutamate]", "values": [{"measurement": "Kd", "setting": "[1]", "result": 5.4, "unit": "µM"}, {"measurement": "IC50", "setting": "[1]; read-out: Displacement of 4MG binding to rat brain membrane homogenates, IC50", "result": 6.7, "unit": "µM"}]}
{"molecule": "Cc1onc(O)c1CC(N)C(=O)O", "note": "(stereo not drawn) [AMPA, α-amino-3-hydroxy-5-methyl-4-isoxazolepropionate]", "values": [{"measurement": "Displacement of 4MG binding", "setting": "[1]", "result": "failed to significantly displace"}]}
{"molecule": "CC(C)(C)c1o[nH]c(=O)c1CC(N)C(=O)O", "note": "(stereo not drawn) [ATPA]", "values": [{"measurement": "Effect on 4MG and/or D-aspartate binding to GluTs", "setting": "[2]", "result": "failed to affect"}]}
{"molecule": "N[C@H](C(=O)O)[C@H]1C[C@H]1C(=O)O", "note": "[CCG-III, (2S,3S,4R)-2-(carboxycyclopropyl)glycine]", "values": [{"measurement": "IC50", "setting": "[1]; [5]", "result": 1.2, "unit": "µM"}]}
{"molecule": "N[C@H](CC(=O)O)C(=O)O", "note": "[D-aspartate]", "values": [{"measurement": "IC50", "setting": "[1]; [5]", "result": 10.9, "unit": "µM"}]}
{"molecule": "N[C@@H](Cn1cc(F)c(=O)[nH]c1=O)C(=O)O", "note": "[FW, fluorowillardiine]", "values": [{"measurement": "Displacement of 4MG binding", "setting": "[1]", "result": "failed to significantly displace"}]}
{"molecule": "NCCCC(=O)O", "note": "[GABA, γ-aminobutyric acid]", "values": [{"measurement": "Effect on 4MG and/or D-aspartate binding to GluTs", "setting": "[2]", "result": "failed to affect"}]}
{"molecule": "NCC(=O)O", "note": "[GLY, glycine]", "values": [{"measurement": "Effect on 4MG and/or D-aspartate binding to GluTs", "setting": "[2]", "result": "failed to affect"}]}
{"molecule": "N[C@@H](Cn1cc(I)c(=O)[nH]c1=O)C(=O)O", "note": "[IW, iodowillardine]", "values": [{"measurement": "Effect on 4MG and/or D-aspartate binding to GluTs", "setting": "[2]", "result": "failed to affect"}]}
{"molecule": "N[C@@H](CC(=O)O)C(=O)O", "note": "[L-aspartate]", "values": [{"measurement": "IC50", "setting": "[1]; [5]", "result": 7.5, "unit": "µM"}]}
{"molecule": "CN[C@H](CC(=O)O)C(=O)O", "note": "[NMDA, N-methyl-D-aspartate]", "values": [{"measurement": "Displacement of 4MG binding", "setting": "[1]", "result": "failed to significantly displace"}]}
{"molecule": "O=C(O)[C@H]1CN[C@H](C(=O)O)C1", "note": "[PDC, L-trans-pyrrolidine-2,4-dicarboxylate]", "values": [{"measurement": "IC50", "setting": "[1]; [5]", "result": 2.9, "unit": "µM"}]}
{"molecule": "N[C@@H](COS(=O)(=O)O)C(=O)O", "note": "[SOS, L-serine-O-sulphate]", "values": [{"measurement": "IC50", "setting": "[1]; [5]", "result": 40, "unit": "µM"}]}
{"molecule": "C[C@H](C[C@H](N)C(=O)O)C(=O)O", "note": "[SYM 2081]", "values": [{"measurement": "IC50", "setting": "[1]; Table 2, read-out: Inhibition of Binding of [3H]-4MG to Glial Glutamate Transporter, IC50", "result": 29, "unit": "µM"}]}
{"molecule": "COC(=O)[C@H](C)C[C@H](N)C(=O)OC", "note": "[compound 2, (2S,4R)-4-methyl glutamic acid dimethyl ester]", "values": [{"measurement": "Analgesic effect", "setting": "Analgesic effect test", "result": "analgesic effect similar to 1"}, {"measurement": "Hydrolysis to (2S,4R)-4-methyl glutamic acid (1)", "setting": "[3]", "result": "readily hydrolyzed"}, {"measurement": "Bioavailability", "setting": "[4]", "result": "enhanced bioavailability"}, {"measurement": "Half-life", "setting": "[4]", "result": "longer half-life"}]}
{"molecule": "N[C@@H](CCC(=O)O)C(=O)O", "note": "[glutamate, L-glutamic acid]", "values": [{"measurement": "IC50", "setting": "[1]; [5]", "result": 6.1, "unit": "µM"}]}
{"molecule": "L-anti-endo-3,4-methanopyrrolidine dicarboxylate [MPDC]", "values": [{"measurement": "IC50", "setting": "[1]; [5]", "result": 4, "unit": "µM"}]}
